Assay results published in publication PMC10222323, “Novel Biotinylated Cu(II)-Phenanthroline Complexes: 2D and 3D Cytotoxic Activity and Mechanistic Insight” (Molecules, 2023).
Like-named read-outs stand apart in the source and are kept apart here.

Key:
[1] = system: DNA; design: method as in earlier work; details: reported literature values; ref 26 (Molphy et al.); cited from earlier work
[2] = system: 2008 (ovarian) cancer cells; experiment: MTT cytotoxicity test, 72 h, 2008; format: cell-based, human
Description: (§1) The in vitro anticancer potential of the newly developed complexes and of the ligands has been tested on six different cancer cell lines including PSN-1 (pancreatic), HCT-15 (colorectal with low sensitivity for cisplatin), 2008 (ovarian), A431 (cervical), MDA-MB-231 (breast), and U1285 (lung) cancer cells. For comparison purposes, cisplatin efficacy was assessed under the same experimental conditions.
(§2) Table 2 reported the IC50 values of the complexes against two types of ovarian cancer cells, one sensitive (2008) and one resistant to cisplatin (C13*). […] The resistance factor (R.F., the ratio among IC50 values obtained in resistant C13*cells and those calculated in the sensitive 2008 ones) calculated for all tested complexes resulted to be ≤2 (R.F. for cisplatin 11.1), strongly confirming the ability of the complexes to bypass cisplatin resistance.
(§3) Tested compounds were dissolved in DMSO and added to the cell-growth medium to a final solvent concentration of 0.5%, which is well reported to not have cytotoxic effects on cell viability. Cisplatin (Sigma Chemical Co., St. Louis, MO, USA) was dissolved in a physiologic solution (0.9% sodium chloride).
(§4) Human colon (HCT-15), pancreatic (PSN-1), and breast (MDA-MB-231) carcinoma-cell lines were obtained from the American Type Culture Collection (ATCC, Rockville, MD). Human cervical carcinoma (A431) cells were kindly provided by Prof. F. Zunino (Division of Experimental Oncology B, Istituto Nazionale dei Tumori, Milan). Human ovarian carcinoma (2008) cells and their cisplatin-resistant counterpart (C13*) were kindly provided by Prof. G. Marverti (Dipartimento di Scienze Biomediche, Università di Modena University, Italy). Cell lines were cultured in RPMI-1640 or DMEM medium (Euroclone) added with 10% fetal calf serum (Euroclone, Milan, Italy), antibiotics (50 units per mL penicillin, and 50 μg mL^−1 streptomycin), and 2 mM L-glutamine.
(§5) The growth inhibitory effect toward the tumour cell lines was evaluated by the MTT test as previously described.

[3] = system: U1285 (lung) cancer cells; experiment: MTT cytotoxicity test, 72 h, U1285; format: cell-based, human; details: mean ± S.D., read-out: IC50 U-1285
Description: as §1, §3, §5

[4] = system: six different cancer cell lines; experiment: MTT cytotoxicity, average over the cancer cell line panel; format: cell-based, human; details: for cytotoxic activity of ligands (in words): compared with the complexes
Description: as §1
Due to note, all the complexes were very effective in the MDA-MB-231 cell line, which overexpress the SMVT (sodium-dependent multivitamin transporter) receptor, which is well known to be involved in the intracellular translocation of biotin [24].
as §5

[5] = system: PSN-1 (pancreatic) cancer cells; experiment: MTT cytotoxicity test, 72 h, PSN-1; format: cell-based, human
Description: as §1, §3, §4, §5

[6] = system: HCT-15 (colorectal with low sensitivity for cisplatin) cancer cells; experiment: MTT cytotoxicity test, 72 h, HCT-15; format: cell-based, human
Description: as §1, §3, §4, §5

[7] = system: A431 (cervical) cancer cells; experiment: MTT cytotoxicity test, 72 h, A431; format: cell-based, human
Description: as §1, §3, §4, §5

[8] = system: MDA-MB-231 (breast) cancer cells; experiment: MTT cytotoxicity test, 72 h, MDA-MB-231; format: cell-based, human
Description: as §1, §3, §4, §5

[9] = system: C13* ovarian cancer cells (cisplatin-resistant); experiment: MTT cytotoxicity test, 72 h, cisplatin-resistant C13*; format: cell-based, human; details: for R.F. (resistance factor): RF = IC50 resistant (C13*)/IC50 parental cells (2008); for IC50: cisplatin-resistant cells, 72 h, MTT test
Description: as §2, §3, §4, §5

[10] = system: noncancerous CHO cells; experiment: Cytotoxicity against noncancerous CHO cells; format: cell-based; details: for IC50: noncancerous cells; for S.I. (selectivity index): average IC50 toward normal cells divided by the average IC50 for the malignant cells
Text: In order to preliminarily assess the possible toxic effect on noncancerous cells, we also evaluated the cytotoxic potential of the newly developed Cu(II) complexes against noncancerous CHO cells (Table 3). For all tested complexes, calculated IC50 values were higher than those obtained (on average) against tumour cells, thus indicating for this class of metal complexes a slightly preferential cytotoxicity against cancer cells, as attested by the calculated selectivity index values (SI = the quotient of the average IC50 toward normal cells divided by the average IC50 for the malignant cells).
as §5

[11] = system: human pancreatic PSN-1 cancer-cell spheroids; experiment: 3D spheroid cytotoxicity, APH assay, 72 h; format: cell-based; details: 3D spheroids, 72 h, APH test
Description: The cancer spheroids were treated with tested complexes for 72 h, and the cell viability was estimated by means of a modified acid phosphatase (APH) assay.
Spheroid cultures were performed by seeding 2.5 × 10^3 PSN-1 cancer cells/well in spheroid-suitable tissue culture untreated 96-well plates (Greiner Bio-one, Kremsmünster, Austria) in RPMI-1640 cell culture medium without phenol red (Sigma Chemical Co., St. Louis, MO, USA) containing 10% fetal calf serum and supplemented with 20% methyl cellulose stock solution.
An established APH-modified assay was used to detect the cytotoxicity profile in 3D spheroids, as previously described. IC50 values were calculated using a 4-PL model.

[12] = system: DNA; experiment: Ethidium bromide displacement assay; format: binding; details: EtBr displacement
Description: A number of research studies were performed on the elucidation of the mechanism of action of copper complexes in the past three decades. Despite several different molecular targets having been proposed for copper(II) complexes, DNA still represents one of the most substantiated when considering diamine ligands. On this basis, we thought it of interest to evaluate the ability of tested complexes to interact with DNA, both at molecular and cellular levels. An ethidium bromide (EB) displacement assay was used to understand if the complexes interact with the DNA at a molecular level. […] These values are very much in line with what was previously seen by us and also very close to the reported literature values of 2.60 × 10^7 M(bp^−1) and 3.04 × 10^7 M(bp^−1) for the bis complexes of [Cu(phen)2]^2+ and [Cu(DPQ)2]^2+ reported by Molphy et al.. […] It is largely possible that the presence of the 1,10-phenanthroline scaffold on compounds 3 and 4 is contributing to the increased displacement of the EtBr (probably by intercalation) and leading to a more noticeable decrease in the fluorescence.
EtBr displacement assays were performed in 10 mM phosphate buffer solution (pH 7.4) as described by Boger et al. The binding values were calculated using the % relative decrease of fluorescence at 50% and the equation below. (1) EEBEtBr/compound50%FI

[13] = system: MDA-MB-231 cells; details: 24 h, 2 and 3 μM
Description: The ability to enter cancer cells is a very important factor to determine the biological activity of metal-based compounds. Consequently, with the aim of correlating the antiproliferative activity elicited by all the newly developed complexes and their accumulation profiles into cancer cells, the Cu content was evaluated in the SMVT overexpressing MDA-MB-231 cells. Uptake profiles were determined by treating cancer cells for 24 h with two concentrations (2 and 3 μM) of tested complexes.
MDA-MB-231 cells (2.5 × 10^6) were seeded in 75 cm^2 flasks in a growth medium (20 mL). Following 24 h, cells were treated for 24 h with tested complexes and samples processed as previously described.
Figure 2 Cellular uptake of complexes 1–4 in drug-treated MDA-MB-231 human breast cancer cells. Cells were incubated for 24 h with […] of tested complexes. The amount of cellular Cu was estimated by GF-AAS. Error bars are S.D.

[14] = Homo sapiens, Table 1, mean ± S.D.
[15] = Table 2, cisplatin-sensitive parental cells

| Compound | IC50 ([5]; mean ± S.D.) [µM] | IC50 ([6]; mean ± S.D.) [µM] | IC50 ([2]; Table 1, mean ± S.D.) [µM] | IC50 [2, 15] [µM] | IC50 ([7]; mean ± S.D.) [µM] | IC50 ([8]; mean ± S.D.) [µM] | IC50 [3] [µM] | R.F. (resistance factor) [9] | IC50 [9] [µM] | IC50 [10] [µM] | further results |
| --- | --- | --- | --- | --- | --- | --- | --- | --- | --- | --- | --- |
| [Cu+2].c1cnc2c(c1)ccc1cccnc12.c1cnc2c(c1)ccc1cccnc12 [[Cu(phen)2]^2+, copper bis-phenanthroline [Cu(phen)2]^2+] |  |  |  |  |  |  |  |  |  |  | binding constant (literature) [1]: 2.60 × 10^7 M(bp^−1) |
| O=C(CCCC[C@@H]1SC[C@@H]2NC(=O)N[C@@H]21)N/N=C1\C(=O)c2cccnc2-c2ncccc21 [B, Biotin-Phen] |  |  |  |  |  |  |  |  |  |  | IC50 [2, 14]: 21.5 ± 0.72 µM; IC50 ([3]; Homo sapiens): 28.1 ± 2.77 µM; cytotoxic activity of ligands (in words) [4]: did not show activity comparable to the complexes |
| N.N.[Cl][Pt][Cl] [Cisplatin, cisplatin, reference compound] | 12.1 ± 2.9 | 13.9 ± 1.7 | 2.2 ± 1.4 | 2.2 ± 1.4 | 2.1 ± 0.9 | 30.5 ± 2.6 | 2.1 ± 0.9 | 11.1 | 24.1 ± 3 | 24.1 ± 3 | IC50 [11]: 52.6 ± 3.8 µM |
| O=C(CCCC[C@@H]1SC[C@@H]2NC(=O)N[C@@H]21)NN=C1c2ccc[n+]3c2-c2c1ccc[n+]2[Cu-2]3([Cl])[Cl] [Complex 1, [Cu(dafone-biotin)Cl2]] | 0.6 ± 0.2 | 0.4 ± 0.1 | 4.5 ± 0.6 | 4.5 ± 0.6 | 7.2 ± 0.6 | 2.1 ± 0.4 | 5.9 ± 0.5 | 0.4 | 2 ± 0.8 | 13.1 ± 0.9 | S.I. (selectivity index) [10]: 3.9; IC50 ([4]; 2D assays, average over the cancer cell lines of Table 1): 3.4 µM; fluorescence quenching (in words) [12]: very small quenching |
| c1cc2c3nccnc3c3ccc[n+]4c3c2[n+](c1)[Cu-2]41[n+]2cccc3c4nccnc4c4ccc[n+]1c4c32 [[Cu(DPQ)2]^2+] |  |  |  |  |  |  |  |  |  |  | binding constant (literature) [1]: 3.04 × 10^7 M(bp^−1) |
| O=C(CCCC[C@@H]1SC[C@@H]2NC(=O)N[C@@H]21)NN=C1c2cccnc2-c2ncccc21 [A, Biotin-Dafone] |  |  |  |  |  |  |  |  |  |  | IC50 ([5]; Homo sapiens, PSN1, mean ± S.D.): > 50 µM; IC50 ([6]; Homo sapiens, HCT-15, mean ± S.D.): > 50 µM; IC50 [2, 14]: > 50 µM; IC50 ([7]; Homo sapiens, A-431, mean ± S.D.): > 50 µM; IC50 ([8]; Homo sapiens, MDA-MB-231, mean ± S.D.): > 50 µM; IC50 ([3]; Homo sapiens): > 50 µM; cytotoxic activity of ligands (in words) [4]: did not show activity comparable to the complexes |
| [Cu(phen)(dafone-biotin)](NO3)2 [Complex 3] | 0.7 ± 0.2 | 1.8 ± 0.2 | 3.3 ± 0.1 | 3.3 ± 0.1 | 0.9 ± 0.2 | 1.4 ± 0.4 | 3 ± 0.3 | 0.7 | 2.5 ± 0.2 | 2.1 ± 0.8 | S.I. (selectivity index) [10]: 1.1; fluorescence quenching (in words) [12]: highest quenching values; relative fluorescence decrease [12]: greater than 50%; binding constant ([12]; 10 mM phosphate buffer pH 7.4, from 50% fluorescence decrease): 2.53 × 10^7 M(bp^−1); Cu intracellular content (uptake) [13]: most internalised into cancer cells |
